Reference: ChEMBL document CHEMBL1148189, “New diterpenes from the gorgonian Solenopodium excavatum” (1993)
≈ marks a conversion by molar mass, not a printed value. Calls of active or inactive are those of the source. The rule behind the calls is not given here.

Test system: P388
Assay: Cytotoxicity against mouse P388 cells
Format: functional

SMILES	Activity	EC50 (read-out: ED50 (the source's name)) [µg/mL]
CCCC(=O)O[C@@H]1C/C(C)=C\[C@@H]2OC(=O)[C@]3(C)O[C@]23[C@H](OC(C)=O)[C@H]2[C@@]3(C)O[C@H]3[C@@H](O)[C@H](OC(C)=O)[C@]2(C)[C@H]1OC(C)=O	inactive	–
CC(=O)O[C@@H]1[C@H]2[C@@H](C)[C@@H](O)[C@@H](O)[C@H](OC(C)=O)[C@]2(C)[C@@H](OC(C)=O)[C@H](OC(C)=O)C/C(C)=C\[C@@H]2OC(=O)[C@]3(C)O[C@@]213	inactive	–
CC(=O)O[C@H]1C[C@@H]2O[C@]2(C)[C@@H]2[C@@H](OC(C)=O)[C@]34O[C@@]3(C)C(=O)O[C@H]4/C=C(/CO)[C@H](OC(C)=O)C[C@H](OC(C)=O)[C@@]12C	inactive	–
CCCC(=O)O[C@@H]1C/C(C)=C\[C@@H]2OC(=O)[C@]3(C)O[C@]23[C@H](OC(C)=O)[C@H]2C(C)=C[C@@H](O)[C@H](OC(C)=O)[C@]2(C)[C@H]1OC(C)=O [STECHOLIDE I]	–	23 (≈ 38.8 µM)
CC(=O)O[C@@H]1[C@H]2[C@@]3(C)O[C@H]3[C@@H](O)[C@H](OC(C)=O)[C@]2(C)[C@@H](OC(C)=O)[C@H](OC(C)=O)C/C(C)=C\[C@@H]2OC(=O)[C@]3(C)O[C@@]213	inactive	–
CC(=O)O[C@H]1C[C@@H](OC(C)=O)/C(C)=C\[C@@H]2OC(=O)[C@]3(C)O[C@]23[C@H](OC(C)=O)[C@H]2[C@@](C)(O)[C@H](OC(C)=O)C=C[C@]12C	inactive	–
CC(=O)O[C@@H]1[C@H]2C(C)=C[C@@H](O)[C@H](OC(C)=O)[C@]2(C)[C@@H](OC(C)=O)[C@H](OC(C)=O)C/C(C)=C\[C@@H]2OC(=O)[C@]3(C)O[C@@]213	inactive	–
CC(=O)O[C@@H]1[C@@H]2O[C@]2(C)[C@@H]2[C@@H](OC(C)=O)[C@]34O[C@@]3(C)C(=O)O[C@H]4/C=C(/C)C[C@@H](OC(C)=O)[C@H](OC(C)=O)[C@@]2(C)[C@H]1OC(C)=O	inactive	–
CC(=O)OC/C1=C/[C@@H]2OC(=O)[C@]3(C)O[C@]23[C@H](OC(C)=O)[C@H]2[C@@]3(C)O[C@H]3C[C@H](OC(C)=O)[C@]2(C)[C@@H](OC(C)=O)C[C@H]1OC(C)=O	inactive	–
